Assay results as given in the NIST ThermoML archive (doi:10.1021/je200721d).
Numbers after ± are expanded uncertainties.

Assay: xn = mol fraction of the nth substance listed
Conditions: Liquid, Vibrating tube method

CCCCCCCC [octane] + CCCCCC
mass density (312.91 K, 1000 kPa, x2 = 0.2199): 680.43 ± 0.26 kg/m3
mass density (312.91 K, 2000 kPa, x2 = 0.2199): 681.31 ± 0.27 kg/m3
mass density (312.91 K, 3000 kPa, x2 = 0.2199): 682.24 ± 0.27 kg/m3
mass density (312.91 K, 4000 kPa, x2 = 0.2199): 683.15 ± 0.28 kg/m3
mass density (312.91 K, 5000 kPa, x2 = 0.2199): 684.07 ± 0.29 kg/m3
mass density (312.91 K, 6000 kPa, x2 = 0.2199): 684.99 ± 0.3 kg/m3
mass density (312.91 K, 7000 kPa, x2 = 0.2199): 685.92 ± 0.3 kg/m3
mass density (312.91 K, 8000 kPa, x2 = 0.2199): 686.87 ± 0.31 kg/m3
mass density (312.91 K, 9000 kPa, x2 = 0.2199): 687.8 ± 0.32 kg/m3
mass density (312.91 K, 10000 kPa, x2 = 0.2199): 688.73 ± 0.33 kg/m3
mass density (312.91 K, 11000 kPa, x2 = 0.2199): 689.64 ± 0.34 kg/m3
mass density (312.91 K, 12000 kPa, x2 = 0.2199): 690.55 ± 0.34 kg/m3
mass density (312.91 K, 13000 kPa, x2 = 0.2199): 691.47 ± 0.35 kg/m3
mass density (312.91 K, 14000 kPa, x2 = 0.2199): 692.36 ± 0.36 kg/m3
mass density (312.91 K, 15000 kPa, x2 = 0.2199): 693.23 ± 0.37 kg/m3
mass density (312.91 K, 16000 kPa, x2 = 0.2199): 694.09 ± 0.38 kg/m3
mass density (312.91 K, 17000 kPa, x2 = 0.2199): 694.93 ± 0.39 kg/m3
mass density (312.91 K, 18000 kPa, x2 = 0.2199): 695.75 ± 0.4 kg/m3
mass density (312.91 K, 19000 kPa, x2 = 0.2199): 696.54 ± 0.4 kg/m3
mass density (312.91 K, 20000 kPa, x2 = 0.2199): 697.32 ± 0.41 kg/m3
mass density (312.91 K, 21000 kPa, x2 = 0.2199): 698.1 ± 0.42 kg/m3
mass density (312.91 K, 22000 kPa, x2 = 0.2199): 698.86 ± 0.43 kg/m3
mass density (312.91 K, 23000 kPa, x2 = 0.2199): 699.56 ± 0.44 kg/m3
mass density (312.91 K, 24000 kPa, x2 = 0.2199): 700.29 ± 0.45 kg/m3
mass density (312.91 K, 25000 kPa, x2 = 0.2199): 700.96 ± 0.46 kg/m3
mass density (313.14 K, 1000 kPa, x2 = 0.1654): 682.2 ± 0.26 kg/m3
mass density (313.14 K, 1000 kPa, x2 = 0.5749): 666.9 ± 0.27 kg/m3
mass density (313.14 K, 1000 kPa, x2 = 0.7995): 655.29 ± 0.27 kg/m3
mass density (313.14 K, 1000 kPa, x2 = 0.9308): 647.6 ± 0.27 kg/m3
mass density (313.14 K, 2000 kPa, x2 = 0.1654): 683.1 ± 0.27 kg/m3
mass density (313.14 K, 2000 kPa, x2 = 0.5749): 667.85 ± 0.27 kg/m3
mass density (313.14 K, 2000 kPa, x2 = 0.7995): 656.27 ± 0.28 kg/m3
mass density (313.14 K, 2000 kPa, x2 = 0.9308): 648.65 ± 0.28 kg/m3
mass density (313.14 K, 3000 kPa, x2 = 0.1654): 684.01 ± 0.27 kg/m3
mass density (313.14 K, 3000 kPa, x2 = 0.5749): 668.75 ± 0.28 kg/m3
mass density (313.14 K, 3000 kPa, x2 = 0.7995): 657.26 ± 0.29 kg/m3
mass density (313.14 K, 3000 kPa, x2 = 0.9308): 649.73 ± 0.29 kg/m3
mass density (313.14 K, 4000 kPa, x2 = 0.1654): 684.9 ± 0.28 kg/m3
mass density (313.14 K, 4000 kPa, x2 = 0.5749): 669.74 ± 0.29 kg/m3
mass density (313.14 K, 4000 kPa, x2 = 0.7995): 658.29 ± 0.29 kg/m3
mass density (313.14 K, 4000 kPa, x2 = 0.9308): 650.78 ± 0.3 kg/m3
mass density (313.14 K, 5000 kPa, x2 = 0.1654): 685.84 ± 0.29 kg/m3
mass density (313.14 K, 5000 kPa, x2 = 0.5749): 670.74 ± 0.3 kg/m3
mass density (313.14 K, 5000 kPa, x2 = 0.7995): 659.31 ± 0.3 kg/m3
mass density (313.14 K, 5000 kPa, x2 = 0.9308): 651.85 ± 0.31 kg/m3
mass density (313.14 K, 6000 kPa, x2 = 0.1654): 686.8 ± 0.3 kg/m3
mass density (313.14 K, 6000 kPa, x2 = 0.5749): 671.71 ± 0.3 kg/m3
mass density (313.14 K, 6000 kPa, x2 = 0.7995): 660.34 ± 0.31 kg/m3
mass density (313.14 K, 6000 kPa, x2 = 0.9308): 652.92 ± 0.32 kg/m3
mass density (313.14 K, 7000 kPa, x2 = 0.1654): 687.71 ± 0.3 kg/m3
mass density (313.14 K, 7000 kPa, x2 = 0.5749): 672.72 ± 0.31 kg/m3
mass density (313.14 K, 7000 kPa, x2 = 0.7995): 661.38 ± 0.32 kg/m3
mass density (313.14 K, 7000 kPa, x2 = 0.9308): 654 ± 0.33 kg/m3
mass density (313.14 K, 8000 kPa, x2 = 0.1654): 688.62 ± 0.31 kg/m3
mass density (313.14 K, 8000 kPa, x2 = 0.5749): 673.69 ± 0.32 kg/m3
mass density (313.14 K, 8000 kPa, x2 = 0.7995): 662.44 ± 0.33 kg/m3
mass density (313.14 K, 8000 kPa, x2 = 0.9308): 655.08 ± 0.33 kg/m3
mass density (313.14 K, 9000 kPa, x2 = 0.1654): 689.54 ± 0.32 kg/m3
mass density (313.14 K, 9000 kPa, x2 = 0.5749): 674.66 ± 0.33 kg/m3
mass density (313.14 K, 9000 kPa, x2 = 0.7995): 663.49 ± 0.34 kg/m3
mass density (313.14 K, 9000 kPa, x2 = 0.9308): 656.16 ± 0.34 kg/m3
mass density (313.14 K, 10000 kPa, x2 = 0.1654): 690.46 ± 0.33 kg/m3
mass density (313.14 K, 10000 kPa, x2 = 0.5749): 675.65 ± 0.34 kg/m3
mass density (313.14 K, 10000 kPa, x2 = 0.7995): 664.53 ± 0.35 kg/m3
mass density (313.14 K, 10000 kPa, x2 = 0.9308): 657.23 ± 0.35 kg/m3
mass density (313.14 K, 11000 kPa, x2 = 0.1654): 691.38 ± 0.33 kg/m3
mass density (313.14 K, 11000 kPa, x2 = 0.5749): 676.63 ± 0.35 kg/m3
mass density (313.14 K, 11000 kPa, x2 = 0.7995): 665.56 ± 0.36 kg/m3
mass density (313.14 K, 11000 kPa, x2 = 0.9308): 658.29 ± 0.36 kg/m3
mass density (313.14 K, 12000 kPa, x2 = 0.1654): 692.28 ± 0.34 kg/m3
mass density (313.14 K, 12000 kPa, x2 = 0.5749): 677.6 ± 0.36 kg/m3
mass density (313.14 K, 12000 kPa, x2 = 0.7995): 666.56 ± 0.37 kg/m3
mass density (313.14 K, 12000 kPa, x2 = 0.9308): 659.33 ± 0.37 kg/m3
mass density (313.14 K, 13000 kPa, x2 = 0.1654): 693.17 ± 0.35 kg/m3
mass density (313.14 K, 13000 kPa, x2 = 0.5749): 678.56 ± 0.36 kg/m3
mass density (313.14 K, 13000 kPa, x2 = 0.7995): 667.56 ± 0.37 kg/m3
mass density (313.14 K, 13000 kPa, x2 = 0.9308): 660.36 ± 0.38 kg/m3
mass density (313.14 K, 14000 kPa, x2 = 0.1654): 694.06 ± 0.36 kg/m3
mass density (313.14 K, 14000 kPa, x2 = 0.5749): 679.5 ± 0.37 kg/m3
mass density (313.14 K, 14000 kPa, x2 = 0.7995): 668.54 ± 0.38 kg/m3
mass density (313.14 K, 14000 kPa, x2 = 0.9308): 661.38 ± 0.39 kg/m3
mass density (313.14 K, 15000 kPa, x2 = 0.1654): 694.94 ± 0.37 kg/m3
mass density (313.14 K, 15000 kPa, x2 = 0.5749): 680.41 ± 0.38 kg/m3
mass density (313.14 K, 15000 kPa, x2 = 0.7995): 669.51 ± 0.39 kg/m3
mass density (313.14 K, 15000 kPa, x2 = 0.9308): 662.38 ± 0.4 kg/m3
mass density (313.14 K, 16000 kPa, x2 = 0.1654): 695.81 ± 0.38 kg/m3
mass density (313.14 K, 16000 kPa, x2 = 0.5749): 681.32 ± 0.39 kg/m3
mass density (313.14 K, 16000 kPa, x2 = 0.7995): 670.45 ± 0.4 kg/m3
mass density (313.14 K, 16000 kPa, x2 = 0.9308): 663.36 ± 0.41 kg/m3
mass density (313.14 K, 17000 kPa, x2 = 0.1654): 696.65 ± 0.38 kg/m3
mass density (313.14 K, 17000 kPa, x2 = 0.5749): 682.2 ± 0.4 kg/m3
mass density (313.14 K, 17000 kPa, x2 = 0.7995): 671.4 ± 0.41 kg/m3
mass density (313.14 K, 17000 kPa, x2 = 0.9308): 664.33 ± 0.42 kg/m3
